Laboratory results from PubChem BioAssay (NCI).
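Following 48 hours of exposure in 96-well plates, responses at five concentrations were used to interpolate endpoints linearly. Abbreviation: GI50, concentration required for 50% inhibition of growth. TGI: concentration producing complete growth inhibition.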

Legend:
Test in all cases: NCI-60 cell line screen, 48 h
COLO 205 colon = test system: COLO 205 colon
SNB-19 CNS = test system: SNB-19 CNS
UACC-257 melanoma = test system: UACC-257 melanoma
HL-60(TB) leukemia = test system: HL-60(TB) leukemia
KM12 colon = test system: KM12 colon
A549 NSCLC = test system: A549 NSCLC
SK-MEL-5 melanoma = test system: SK-MEL-5 melanoma
SK-OV-3 ovarian = test system: SK-OV-3 ovarian
NCI-H226 lung = test system: NCI-H226 lung
SN12C renal = test system: SN12C renal
OVCAR-5 ovarian = test system: OVCAR-5 ovarian

C#C[C@]1(O)[C@@H](CO)O[C@@H](n2ccc(N)nc2=O)[C@@H]1O
TGI (COLO 205 colon): 0.203 µM | TGI (SNB-19 CNS): > 24 µM | TGI (UACC-257 melanoma): 8.03 µM | TGI (HL-60(TB) leukemia): > 100 µM | TGI (KM12 colon): 4.4 µM | TGI (A549 NSCLC): > 100 µM | TGI (SK-MEL-5 melanoma): 0.371 µM | TGI (SK-OV-3 ovarian): > 100 µM | TGI (NCI-H226 lung): 3.66 µM

CN1C(=O)CN2C(Cl)(Cl)C2(c2ccccc2)c2cc(Cl)ccc21 (centres undefined)
TGI (COLO 205 colon): > 100 µM | TGI (SN12C renal): > 100 µM | TGI (UACC-257 melanoma): > 100 µM | TGI (KM12 colon): > 100 µM | TGI (SK-MEL-5 melanoma): > 100 µM | TGI (OVCAR-5 ovarian): > 100 µM | TGI (SK-OV-3 ovarian): > 100 µM | TGI (NCI-H226 lung): > 100 µM

Cc1cc(C)c(NC(=O)/C=C/c2ccccc2)c(C)c1
TGI (SNB-19 CNS): > 100 µM | TGI (UACC-257 melanoma): > 100 µM | TGI (HL-60(TB) leukemia): > 100 µM | TGI (KM12 colon): > 100 µM | TGI (A549 NSCLC): > 100 µM | TGI (OVCAR-5 ovarian): > 100 µM | TGI (SK-OV-3 ovarian): > 100 µM | TGI (NCI-H226 lung): > 100 µM

CC(=O)N=c1ccc2nc(N)nn(O)c-2c1
TGI (COLO 205 colon): > 100 µM | TGI (SN12C renal): > 100 µM | TGI (SNB-19 CNS): > 100 µM | TGI (UACC-257 melanoma): > 100 µM | TGI (HL-60(TB) leukemia): > 100 µM | TGI (KM12 colon): > 100 µM | TGI (A549 NSCLC): > 100 µM | TGI (SK-MEL-5 melanoma): > 100 µM | TGI (OVCAR-5 ovarian): > 100 µM | TGI (SK-OV-3 ovarian): > 100 µM | TGI (NCI-H226 lung): > 100 µM

COc1cc2c(cc1O)Cc1c-2[n+](C)cc2cc(OC)c(OC)cc12
TGI (COLO 205 colon): > 100 µM | TGI (SN12C renal): > 100 µM | TGI (SNB-19 CNS): > 50 µM | TGI (UACC-257 melanoma): > 100 µM | TGI (HL-60(TB) leukemia): > 100 µM | TGI (KM12 colon): > 100 µM | TGI (A549 NSCLC): > 100 µM | TGI (SK-MEL-5 melanoma): 23.3 µM | TGI (OVCAR-5 ovarian): > 100 µM | TGI (SK-OV-3 ovarian): > 100 µM | TGI (NCI-H226 lung): > 100 µM

COc1cc(/C=C/C(=O)c2ccc(F)cc2)ccc1OCCCCCOc1cc2c(cc1OC)C(=O)N1CCCC1C=N2 (centres undefined)
GI50 (COLO 205 colon): < 0.0151 µM | TGI (COLO 205 colon): 0.043 µM | GI50 (SN12C renal): 0.0335 µM | TGI (SN12C renal): 2.37 µM | GI50 (SNB-19 CNS): < 0.0223 µM | TGI (SNB-19 CNS): 3.35 µM | GI50 (UACC-257 melanoma): 0.238 µM | TGI (UACC-257 melanoma): 1.17 µM | GI50 (HL-60(TB) leukemia): 0.0405 µM | GI50 (KM12 colon): 0.0147 µM | TGI (KM12 colon): 0.0501 µM | GI50 (SK-MEL-5 melanoma): 0.0896 µM | TGI (SK-MEL-5 melanoma): 0.23 µM | GI50 (SK-OV-3 ovarian): 0.212 µM | TGI (SK-OV-3 ovarian): 6.06 µM | GI50 (NCI-H226 lung): 0.0493 µM | TGI (NCI-H226 lung): 1.07 µM

NC(Cc1ccccc1)c1nn[nH]n1 (centres undefined)
TGI (COLO 205 colon): > 100 µM | TGI (SN12C renal): > 100 µM | TGI (SNB-19 CNS): > 100 µM | TGI (UACC-257 melanoma): > 100 µM | TGI (HL-60(TB) leukemia): > 100 µM | TGI (KM12 colon): > 100 µM | TGI (A549 NSCLC): > 100 µM | TGI (SK-MEL-5 melanoma): > 100 µM | TGI (OVCAR-5 ovarian): > 100 µM | TGI (SK-OV-3 ovarian): > 100 µM | TGI (NCI-H226 lung): > 100 µM

O=[N+]([O-])c1ccc(CN=C2NNS(=O)(=O)c3ccccc32)cc1
TGI (COLO 205 colon): > 100 µM | TGI (SN12C renal): > 100 µM | TGI (SNB-19 CNS): > 100 µM | TGI (UACC-257 melanoma): > 100 µM | TGI (HL-60(TB) leukemia): > 100 µM | TGI (KM12 colon): > 100 µM | TGI (A549 NSCLC): > 100 µM | TGI (SK-MEL-5 melanoma): > 100 µM | TGI (OVCAR-5 ovarian): > 100 µM | TGI (NCI-H226 lung): > 100 µM

C/C(=N\O)C1CC2C=C(C#N)C1N(Cc1ccccc1)C2 (centres undefined)
TGI (COLO 205 colon): > 100 µM | TGI (SN12C renal): > 100 µM | TGI (SNB-19 CNS): > 100 µM | TGI (UACC-257 melanoma): > 100 µM | TGI (HL-60(TB) leukemia): > 100 µM | TGI (KM12 colon): > 100 µM | TGI (A549 NSCLC): > 100 µM | TGI (SK-MEL-5 melanoma): > 100 µM | TGI (OVCAR-5 ovarian): > 100 µM | TGI (SK-OV-3 ovarian): > 100 µM | TGI (NCI-H226 lung): > 100 µM

CC(C)OC(=O)NNc1cccc(Cl)c1
TGI (COLO 205 colon): > 100 µM | TGI (SN12C renal): > 100 µM | TGI (SNB-19 CNS): > 100 µM | TGI (UACC-257 melanoma): > 100 µM | TGI (HL-60(TB) leukemia): > 100 µM | TGI (KM12 colon): > 100 µM | TGI (A549 NSCLC): > 100 µM | TGI (SK-MEL-5 melanoma): > 100 µM | TGI (OVCAR-5 ovarian): > 100 µM | TGI (SK-OV-3 ovarian): > 100 µM | TGI (NCI-H226 lung): > 100 µM

C=CC(=O)NCNC(=O)C=C
TGI (COLO 205 colon): > 100 µM | TGI (SN12C renal): > 100 µM | TGI (SNB-19 CNS): > 100 µM | TGI (UACC-257 melanoma): > 100 µM | TGI (HL-60(TB) leukemia): > 100 µM | TGI (KM12 colon): > 100 µM | TGI (A549 NSCLC): > 100 µM | TGI (SK-MEL-5 melanoma): > 100 µM | TGI (OVCAR-5 ovarian): > 100 µM | TGI (SK-OV-3 ovarian): > 100 µM | TGI (NCI-H226 lung): > 100 µM

OCC1OC(n2cnc3c(SCc4ccccc4)ncnc32)C(O)C1O (centres undefined)
TGI (COLO 205 colon): > 94.9 µM | TGI (SN12C renal): > 100 µM | TGI (SNB-19 CNS): > 100 µM | TGI (UACC-257 melanoma): > 100 µM | TGI (HL-60(TB) leukemia): 8.52 µM | TGI (KM12 colon): > 100 µM | TGI (A549 NSCLC): > 100 µM | TGI (SK-MEL-5 melanoma): > 100 µM | TGI (OVCAR-5 ovarian): > 100 µM | TGI (SK-OV-3 ovarian): > 100 µM | TGI (NCI-H226 lung): > 100 µM

[N-]=[N+]=CC(=O)OCC1NC(=O)C(COC(=O)C=[N+]=[N-])NC1=O (centres undefined)
TGI (COLO 205 colon): > 100 µM | TGI (SN12C renal): > 100 µM | TGI (SNB-19 CNS): > 100 µM | TGI (UACC-257 melanoma): > 100 µM | TGI (HL-60(TB) leukemia): > 100 µM | TGI (KM12 colon): > 100 µM | TGI (A549 NSCLC): > 100 µM | TGI (OVCAR-5 ovarian): > 100 µM | TGI (SK-OV-3 ovarian): > 100 µM | TGI (NCI-H226 lung): > 100 µM

CCP(=O)(CC)C(Cl)(Cl)C(O)C(Cl)(Cl)Cl (centres undefined)
TGI (COLO 205 colon): > 100 µM | TGI (SN12C renal): > 100 µM | TGI (SNB-19 CNS): > 100 µM | TGI (UACC-257 melanoma): > 100 µM | TGI (HL-60(TB) leukemia): > 100 µM | TGI (A549 NSCLC): > 100 µM | TGI (SK-MEL-5 melanoma): > 100 µM | TGI (OVCAR-5 ovarian): > 100 µM | TGI (SK-OV-3 ovarian): > 100 µM | TGI (NCI-H226 lung): > 100 µM
